What was measured:
[1] = 101.33 kPa, Liquid; for viscosity: Falling or rolling sphere viscometry; for speed of sound: Sing-around technique in a fixed-path interferometer; for mass density: Vibrating tube method
[2] = refractive index (Na D-line) (dimensionless); conditions: 101.33 kPa, Liquid, Standard Abbe refractometry

CC[n+]1ccc(C)cc1.O=S(=O)([N-]S(=O)(=O)C(F)(F)F)C(F)(F)F
Conditions	mass density, [1] [kg/m3]	refractive index, [2]	speed of sound, [1] [m/s]	viscosity, [1] [mPa·s]
293.15 K	1491.6	1.44562	1275.3	40.01
298.15 K	1486.67	1.44412	1263.8	32.83
303.15 K	1481.76	1.4426	1252.4	27.39
308.15 K	1476.87	1.44108	1241.2	23.17
313.15 K	1472	1.43954	1230.1	19.8
318.15 K	1467.15	1.43794	1219.2	17.17
323.15 K	1462.32	1.43641	1208.3	15
328.15 K	1457.52	1.43493	1197.3	13.26
333.15 K	1452.73	1.43344	1187	11.82
338.15 K	1447.96	1.43195	1176.5	10.57
343.15 K	1443.21	1.43047	1166.1	9.51

CC[n+]1cccc(C)c1.O=S(=O)([N-]S(=O)(=O)C(F)(F)F)C(F)(F)F
Conditions	mass density, [1] [kg/m3]	refractive index, [2]	speed of sound, [1] [m/s]	viscosity, [1] [mPa·s]
293.15 K	1493.4	1.44503	1270.6	47.85
298.15 K	1488.54	1.44355	1259.6	39.08
303.15 K	1483.69	1.44204	1248.5	32.33
308.15 K	1478.86	1.44056	1237.5	27.12
313.15 K	1474.05	1.43904	1226.7	23.06
318.15 K	1469.26	1.43751	1216	19.81
323.15 K	1464.49	1.43599	1205.4	17.32
328.15 K	1459.74	1.43451	1194.9	15.15
333.15 K	1455.01	1.43304	1184.6	13.39
338.15 K	1450.3	1.4316	1174.3	11.92
343.15 K	1445.6	1.43014	1164.2	10.67

CC[n+]1ccccc1C.O=S(=O)([N-]S(=O)(=O)C(F)(F)F)C(F)(F)F
Conditions	mass density, [1] [kg/m3]	refractive index, [2]	speed of sound, [1] [m/s]	viscosity, [1] [mPa·s]
293.15 K	1510.22	1.44938	1310.9	97.02
298.15 K	1505.35	1.44789	1299.5	75.84
303.15 K	1500.5	1.4464	1288.5	60.69
308.15 K	1495.66	1.44493	1277.3	49.76
313.15 K	1490.85	1.44343	1266.3	41.04
318.15 K	1486.06	1.44181	1255.4	34.3
323.15 K	1481.29	1.44037	1244.6	29.05
328.15 K	1476.54	1.4388	1234	24.86
333.15 K	1471.81	1.43744	1223.4	21.51
338.15 K	1467.11	1.43599	1213	18.71
343.15 K	1462.42	1.43454	1202.7	16.54

CC[n+]1ccccc1.O=S(=O)([N-]S(=O)(=O)C(F)(F)F)C(F)(F)F [1-ethylpyridinium bis[(trifluoromethyl)sulfonyl]imide]
Conditions	mass density, [1] [kg/m3]	refractive index, [2]	speed of sound, [1] [m/s]	viscosity, [1] [mPa·s]
293.15 K	1540.83	1.44227	1279.1	50.27
298.15 K	1535.84	1.44091	1268.1	41.08
303.15 K	1530.87	1.43939	1257.1	34.17
308.15 K	1525.92	1.43788	1246.3	28.79
313.15 K	1520.99	1.43637	1235.6	24.58
318.15 K	1516.08	1.4349	1225	21.18
323.15 K	1511.2	1.43339	1214.5	18.48
328.15 K	1506.34	1.43193	1204.2	16.26
333.15 K	1501.5	1.43048	1193.9	14.35
338.15 K	1496.67	1.42905	1183.8	12.79
343.15 K	1491.87	1.42762	1173.8	11.48

— the NIST ThermoML archive (doi:10.1016/j.jct.2015.02.020)
